Results published in patent publication US8119116B2, “Therapeutics for cancer using 3-bromopyruvate and other selective inhibitors of ATP production” (John Hopkins University School of Medicine, priority 2001, dated 2012).

What was measured:
[1] = tested on: liver implanted VX2 tumors; experiment: Direct intraarterial injection into liver implanted VX2 tumors, tumor histology; assay type: in vivo, rabbit; settings: single intraarterial injection
From the text: The rabbit VX2 tumor was selected for implantation in the liver because of the similarities of its blood supply to that of human hepatomas. Other attributes of this tumor include rapid tumor growth, development of a sizable tumor that can be readily identified by x-ray imaging (fluoroscopy), and a biochemical phenotype characteristic of advanced stage tumors, i.e., high glycolysis and elevated levels of mitochondrial bound hexokinase. In addition, the rabbit is large enough that selective manipulation of catheters in the hepatic artery from the common femoral artery for delivery of agents is possible. Adult New Zealand white rabbits (32 total, Robinson Services, Inc.) weighing 3.5-4.2 kg were used. Studies with these animals were approved by the Johns Hopkins University Animal Care and Use Committee and carried out according to their guidelines. For successful implantation of the VX2 tumor into the liver, it was first grown for 2 weeks on the hind leg of a carrier rabbit. Each carrier rabbit was used to supply tumor cells for implantation into the left lobe of the liver of 2 separate rabbits. All animals, carriers and recipients, were anesthetized with a mixture of acepromazine (2.5 mg/kg) and ketamine hydrochloride (44 mg/kg) administered intramuscularly. Intravenous access was gained via a marginal ear vein and sodium pentothal was given intravenously to maintain anesthesia. The VX2 tumor was then excised from the carrier rabbit and placed in Hanks solution. Chunks of the tumor were minced in the same solution. Then, the abdomens of the recipient rabbits were shaved and prepped with betadine after which a midline subxyphoid incision was made. The anterior surface of the liver was exposed and tumor cells (0.1-0.2 ml) from the minced donor tumor were directly implanted onto the left lobe of the liver using the outer cannula of a 21-gauge angiocatheter. This method allows the growth of a single solitary, well-demarcated tumor in the liver of each recipient rabbit. The abdomen was closed in 2 layers. Proper aseptic technique was rigorously observed during each implantation. After surgery, animals were returned to their cages, kept warm with blankets, and monitored in the animal laboratory under the direct supervision of a physician or a technician until they recovered from anesthesia. […] The tumors were allowed to grow for another 14 days at which time they reached an ellipsoidal shape with dimension of approximately 1.5×1.8×2.5 cm. […]
Administration of anesthesia, intravenous access and sodium pentothal anesthesia were carried out as described in Example 12. […] The tumor could readily be visualized as a region of hypervascular blush located on the left side of the liver near the gastric fundus. […]

[2] = tested on: hexokinase bound to the mitochondrial fraction of the VX2 tumor; experiment: Hexokinase activity of the VX2 tumor mitochondrial fraction; assay type: biochemical, rabbit; settings: 5 mM, VX2 tumor mitochondria
Method: The freshly isolated liver or VX2 tumor tissues (15-20 g wet weight) was rinsed in 3 volumes of H-medium (210 mM D-mannitol, 70 mM sucrose, 2 mM Hepes, and 0.05% bovine albumin, pH 7.4) at 4° C. and minced with a razor blade as finely as possible. A 30% (V/V) suspension was made using ice-cold H-medium in a Potter-Elvehjem glass homogenizer (55 ml capacity), and homogenization was achieved by applying 4 complete up and down strokes through the suspension with a rotating (˜400 rpm), serrated, teflon pestle attached to a motor. To remove cell debris and nuclei, the resultant homogenate was diluted to twice the initial volume and centrifuged at 630×g for 8 minutes at 4° C. in a Sorvall RC-2B centrifuge using a GSA rotor. The supernatant was removed and then centrifuged at 6,800 g for 15 min under the same conditions. The resultant supernatant was saved and referred to here as the cytosolic faction. The pellet was resuspended in the initial volume of H-medium and centrifuged twice at 9,800×g for 15 min at 4° C. The washed pellet represents the mitochondrial fraction.
The assay coupled the glucose-6-phosphate formed in the hexokinase reaction to the glucose-6-phosphate dehydrogenase reaction. Here, NADP+, oxidizes glucose-6-phosphate to a g-lactone while becoming reduced to NADPH, thus allowing the formation of the latter to be monitored spectrophotometrically at 340 nm. […]

`O=C(O)C(=O)CBr` [3BrPA, 3-bromopyruvic acid] was tested, and the “maximal number of non-viable cells observed in any one experiment” value [1] was 90%, the “total non-viable cells in the tumor” value ([1]; 25 ml 0.5 mM, 4 days) was 84±5% and the “viable cells in the tumor” value ([1]; 25 ml 0.5 mM, 4 days) was 16±5%. The “necrosis in tumor sections outside the central core region” value ([1]; 4 days) was ~100% and the “inhibition of the hexokinase reaction” value [2] was “inhibits completely”.
